How the values were obtained:
MCF-7 cancer cells = experiment: Sulforhodamine B (SRB) growth inhibition assay; type: cell-based; details: Homo sapiens, MCF7, 24 h treatment, mean of triplicate, SD <10%
Method: (§1) Various compounds were tested to evaluate the dose response curve for effect on MCF-7 cancer cells and MDA-MB-231 cancer cells. MCF-7 and MDA-MB-231 cells were cultured in 10% Minimum Essential Medium Eagle (MEME) supplemented with Earle's Balanced Salt Solution (EBSS), Non-essential Amino acids (NEAA), Sodium pyruvate, Pen/Strep, L-glutamine and Fetal Bovine Serum (FBS) at 37° C. in 5% CO2.
(§2) Sulforhodamine B (SRB) Assay: A stock solution of compounds was prepared at 50 mM in 100% DMSO. For cells preparation, a flask of 75 cm^2 or 25 cm^2 were used for 2.6×10^5 cells or 1.44×10^5 cells respectively with an 80-90% of confluence. Cells were washed with PBS and trypsinized. The concentration of cells was determined using a 1:2 dilutions with Trypan Blue and a hemocytometer. After cell count, the concentration was adjusted to have a 1.9×10^4 cells/well. Approximately […] of cells suspension, compounds, control positive and control negative were added in triplicates to a 96 well plate. Positive controls used were ellipticine, doxorubicin, and/or vincristine, and the negative control was DMSO 0.1%. All compounds at 50, 25, 12.5, 6.3, and 1.6 μM were incubated with cells at 37° C. for 24 hrs. For fixation, cold TCA 50% was used and incubated at 4° C. for 1 hr. Wells were washed and dried prior to tincture with 100 μL of SRB 0.4%. To remove excess of SRB, acetic acid was used. For analysis, TRIS-BASE Solution (pH=10.5) was used and shacked prior to reading using an ELISA reader at 510 nm and the software SoftMax Pro 4.8.
(§3) For each compound, 50% growth inhibition (GI50) was calculated from Sigmoidal dose-response curves (variable-slope) that were generated with data obtained from experiments carried out in triplicates (GI50 values were generated with GraphPad Prism V. 6.02, GraphPad Software, Inc.). The results are presented in FIGS. 4A-4B (MCF-7 cancer cells) and FIGS. 5A-5B (MDA-MB-231 cancer cells).

[1] = tested on: MDA-MB-231 breast cancer cells; experiment: Wound healing assay (scratch method), cell migration; type: cell-based, human; details: Homo sapiens; percent relative migration at 10 μM after 24 h, relative to control, MDA-MB-231
Method: The experimental data of anti-migratory activities for compounds 3a-d and 4a-f were obtained using MDA-MB-231 breast cancer cells. For the migration assay, a wound-healing assay (scratch-wound assay) was utilized in the presence of vehicle (0.02% DMSO) or compounds at […].
Prior to assays, cells were grown until 80-90% confluence was observed. A 75 cm2 flask was used for 2.6×10^5 cells/mL in 10 mL and for a 25 cm2 flask 1.44×10^5 cells/mL in 5 mL. The cells were washed with PBS to remove all traces of FBS. 2 mL was added for a 25 cm2 flasks or 4 mL for a 75 cm2 flasks trypsin, and incubated 5-10 min at 37° C. At the end of the incubation time, cells were re-suspended and counted with hemocytometer using 1:2 dilutions with Trypan blue. Subsequently, cell viability was calculated. In a 12 multiwell plate, the plastic pattern was used to draw a fine space with a fine marker on the bottom of the plate. Cells were seeded at 1.5-2.2×10^5 cells/mL in 1 mL and incubated for 24 h. Cells were then rinsed with PBS and incubated in starving media (0.5% FBS) overnight. All controls and drugs were tested in triplicate. The negative control for each drug was prepared according to the drug's DMSO concentration.
Drugs were diluted and the final concentration at each well […]. The wound was made using a sterile pipette tip of […]. Cells were then rinsed very gently with media without FBS and media with negative controls was added. After a 24 h incubation, the gap distance was evaluated using the software Lumera Infinity Analyze 6.4.0. Pictures were taken at 0, 8, 12 and 24 h using a 10× objective. The percentage of migration was calculated using the following formula: 100−[(X0/X0)]*100 for time 0 h measurements 100−[(X24/X0)]*100 for time 24 h measurements
The experimental data of anti-migratory activities for compounds 3a-d and 4a-f were obtained using MDA-MB-231 breast cancer cells, and results are summarized in Table 1. For the migration assay, we used a wound-healing assay (scratch-wound assay)^22 in the presence of vehicle (0.02% DMSO) or compounds at 10 μM (FIG. 6). […] However, compounds 3a, 3c, and 4a-f inhibited migration in the range of 1-9%.
An additional example of a compounds with modification in building block C was synthesized via a different procedure as represented in Scheme 2B (see FIG. 11B). The compounds that were synthesized were tested for their biological activity by determination of their cytotoxicity in MDA-MB-231 breast cancer cell lines as shown in Table 5. The cytotoxicity's are expressed as IC50, which indicates the concentration at which 50% of the cell growth is inhibited. Furthermore, the inhibition of cell migration was tested at a concentration of 0.2×IC50, or, when the IC50 was >50 μM at a concentration of 10 μM. For comparison, Table 5 also includes the Lipinski and drug-likeness parameters as calculated via the MolSoft platform.
Migration assays were performed via the Scratch Method as described previously.

MDA-MB-231 cancer cells = experiment: Sulforhodamine B (SRB) growth inhibition assay; type: cell-based, human
Method: as §1, §2, §3

- GI50 (MCF-7 cancer cells): > 50 µM
- GI50 (MDA-MB-231 cancer cells; Homo sapiens, MDA-MB-231, SRB assay, 24 h treatment, mean of triplicate, SD <10%): > 50 µM
SMILES: CCn1c2ccccc2c2cc(C(=O)Nc3cccnc3N3CCOCC3)ccc21 [Compound 11b, 9-Ethyl-9H-carbazole-3-carboxylic Acid (2-morpholin-4-yl-pyridin-3-yl)-amide]
- activity at 10 µM [1]: 66 ± 7.43%
- anti-proliferative activity / cytotoxicity in words (MDA-MB-231 cancer cells; MDA-MB-231, concentrations ≤50 μM): minimal cytotoxicity

From US11446299B2, “Carbazole EHop-016 derivatives as anticancer and anti-migratory agents” (UNIVERSITY OF PUERTO RICO, priority 2017, dated 2022)
